Assays:
[1] = system: spontaneous uterine contractions; experiment: Inhibition of spontaneous uterine contractions in anesthetized late-term pregnant rat; format: in vivo; conditions: oral, 10, 30 or 60 mg/kg; at any time during the 170-180 minutes observation
Description: Late-term pregnant (certified at days 19-21 of pregnancy) Sprague Dawley CD (SD) BR female rats (Charles River, Calco, Italy), weighing 350-400 g were anesthetized with urethane (1.05 g/kg, i.p.) and placed on a homeothermic operating table. A midline incision at the hypogastrium level was made, one pregnant uterine horn exposed and its tubal end (near the ovary) was closed by a ligature with surgical silk. […] After the surgical preparation, a 30-min stabilization period was observed and then the effects of increasing doses of compounds of the present invention (given as 10-min i.v. infusion, bolus i.v. or p.o.) were evaluated by measuring the resulting uterine contractions. For the i.v. administration (infusion or bolus) the uterine contractile activity was quantified by calculating the AUC during the 10-min injection period. The percent variation of the AUC values relative to the spontaneous uterine response observed after each compound administration was calculated in comparison to the value recorded before the first dose-administration (basal value). The effect of test compounds of the present invention was evaluated by comparing pre- and post-treatment luminal uterine pressure values. […] Statistical differences between treatment groups at each time-point were determined by using one-way ANOVA followed by Tukey test. […]

vasopressin V1a receptor = vasopressin V1a receptor (Homo sapiens, UniProt P37288); experiment: Binding to vasopressin V1a receptor; conditions: read-out: inhibition constant Ki to the vasopressin V1a receptor
[2] = In vivo stability: isomeric interconversion after single oral and intravenous doses in rats; design: species or system rat; conditions: female rats
Description: The animals used in this study were Sprague-Dawley, Crl: CD®BR albino rats. All animals were supplied by Charles River UK Ltd (Margate, Kent, UK). Animals were in the weight range 200-260 g and were approximately 2 months old. Rats were given a unique identity number and were identified by unique tail markings plus cage location.
The dose groups were as follows: 4 female were given an oral dose and 4 female were given an intravenous dose.
(§1) Dose formulations were prepared in an appropriate matrix; intravenous doses were prepared in NP3S, whilst oral doses were prepared in Labrasol:water (1:1 v/v).

[3] = Isomeric interconversion in dose formulations (HPLC); format: physicochemical; conditions: oral (Labrasol:water 1:1) and intravenous (NP3S) dose formulations, pre- and post-dose
Description: as §1

[4] = Qualitative solubility/crystallisation tests on 15 mg scale; format: physicochemical

Chain of vasopressin V1a receptor (P37288 whole entry, species assumed): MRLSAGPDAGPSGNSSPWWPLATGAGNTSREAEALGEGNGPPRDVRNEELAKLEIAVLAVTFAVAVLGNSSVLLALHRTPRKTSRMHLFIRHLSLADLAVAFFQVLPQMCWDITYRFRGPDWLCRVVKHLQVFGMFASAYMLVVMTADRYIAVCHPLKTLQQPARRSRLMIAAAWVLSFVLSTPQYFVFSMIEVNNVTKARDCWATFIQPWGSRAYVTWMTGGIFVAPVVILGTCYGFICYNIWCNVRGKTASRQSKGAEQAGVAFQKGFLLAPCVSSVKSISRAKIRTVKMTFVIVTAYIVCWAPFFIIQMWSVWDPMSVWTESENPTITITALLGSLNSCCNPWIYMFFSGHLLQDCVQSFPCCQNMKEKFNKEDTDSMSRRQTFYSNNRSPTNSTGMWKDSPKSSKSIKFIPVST

Row | SMILES | inhibition of uterine contraction [1] | Ki (vasopressin V1a receptor) [nM] | [14C]-E-isomer present in plasma ([2]; 30 mg/kg oral or intravenous, plasma collected up to 6 hours) | isomeric interconversion in vivo ([2]; 30 mg/kg, after oral or intravenous dose administration) | interconversion to E-isomer during dose preparation or administration [3] | Qualitative solubility, Dissolves in: ([4]; DIPE, hot) [vol hot] | Qualitative solubility, Dissolves in: ([4]; IPA, hot) [vol hot] | Qualitative solubility, Dissolves in: ([4]; MIBK, hot) [vol hot] | Qualitative solubility, Dissolves in: ([4]; THF, cold) [vol cold] | Qualitative solubility, Comment ([4]; heptanes) | Qualitative solubility, Dissolves in: ([4]; tBuOH, hot) [vol hot] | Qualitative solubility, Dissolves in: ([4]; toluene, cold) [vol cold]
1 | CO/N=C1\C[C@@H](CO)N(C(=O)c2ccc(-c3ccccc3C)cc2)C1 [(3E,5S)-5-(hydroxymethyl)-1-[(2′-methyl-1,1′-biphenyl-4-yl)carbonyl]pyrrolidin-3-one O-methyloxime] | no inhibition |  |  |  |  |  |  |  |  |  |  | 
2 | CO/N=C1/C[C@@H](CO)N(C(=O)c2ccc(-c3ccccc3C)cc2)C1 [(3Z,5S)-5-(hydroxymethyl)-1-[(2′-methyl-1,1′-biphenyl-4-yl)carbonyl]pyrrolidin-3-one O-methyloxime] |  | 120 | no evidence | no detectable isomeric interconversion | no detectable interconversion | 40 | 4 | 4 | 4 | insoluble in 20 vol | 6 | 2

— patent US20160221944A1, “PYRROLIDINE DERIVATIVES AS OXYTOCIN/VASOPRESSIN V1a RECEPTORS ANTAGONISTS” (ObsEva S.A., priority 2013, published 2016)
